According to PubChem BioAssay AID248 (DTP/NCI, 2004):
Where “and” joins values, the source holds several entries; their conditions need not be identical. Equal values may be shown once. Inconclusive results and toxic doses are left out.

Test system: L1210 leukemia ip in BDF1 mice, survival T/C
Assay: NCI In Vivo Anticancer Drug Screen. Data for tumor model L1210 Leukemia (intraperitoneal) in B6D2F1 (BDF1) mice
Details: endpoint: mean survival time, higher = longer survival
Outline: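 Value reflects the ratio of survival in compound-treated mice to survival in vehicle-treated controls, with both groups carrying the same transplanted tumor.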

O=C(Nc1ccc(NC2=NCCN2)cc1)c1ccc(C(=O)Nc2ccc(NC3=NCCN3)cc2)cc1
T/C (dose: 0.25 mg/kg/injection, schedule: Q01DX001 (ip), vehicle: saline): 109 % of control | T/C (dose: 0.3 mg/kg/injection, schedule: Q#A X Z (ip), vehicle: saline): 116 % of control | T/C (dose: 0.45 mg/kg/injection, schedule: Q#A X Z (ip), vehicle: saline): 122 % of control | T/C (dose: 0.5 mg/kg/injection, schedule: Q01DX001 (ip), vehicle: saline): 110 % of control | T/C (dose: 0.5 mg/kg/injection, schedule: Q07DX Z (ip), vehicle: saline): 97 % of control | T/C (dose: 0.63 mg/kg/injection, schedule: Q02DX004 (im), vehicle: saline): 104 % of control | T/C (dose: 0.9 mg/kg/injection, schedule: Q01DX Z (ip), vehicle: methylcellulose (MC)): 104 % of control | T/C (dose: 0.94 mg/kg/injection, schedule: Q01DX Z (ip), vehicle: saline): 103 % of control | T/C (dose: 1.0 mg/kg/injection, schedule: Q01DX001 (ip), vehicle: saline): 109 % of control | T/C (dose: 1.0 mg/kg/injection, schedule: Q07DX Z (ip), vehicle: saline): 106 % of control | T/C (dose: 1.0 mg/kg/injection, schedule: Q#A X Z (ip), vehicle: saline): 180 % of control | T/C (dose: 1.25 mg/kg/injection, schedule: Q01DX Z (ip), vehicle: methylcellulose (MC)): 109 % of control | T/C (dose: 1.25 mg/kg/injection, schedule: Q02DX004 (im), vehicle: saline): 101 % of control | T/C (dose: 1.3 mg/kg/injection, schedule: Q01DX Z (ip), vehicle: saline): 120 % of control | T/C (dose: 1.3 mg/kg/injection, schedule: Q01DX Z (sc), vehicle: saline): 93 % of control | T/C (dose: 1.5 mg/kg/injection, schedule: Q#A X Z (ip), vehicle: saline): 191 % of control | T/C (dose: 1.8 mg/kg/injection, schedule: Q01DX Z (ip), vehicle: methylcellulose (MC)): 116 % of control | T/C (dose: 1.88 mg/kg/injection, schedule: Q01DX Z (ip), vehicle: saline): 200 % of control | T/C (dose: 2.0 mg/kg/injection, schedule: Q01DX001 (ip), vehicle: saline): 113 % of control | T/C (dose: 2.0 mg/kg/injection, schedule: Q01DX Z (ip), vehicle: saline): 177 % of control | T/C (dose: 2.0 mg/kg/injection, schedule: Q01DX Z (sc), vehicle: saline): 101 % of control | T/C (dose: 2.0 mg/kg/injection, schedule: Q07DX Z (ip), vehicle: saline): 103 % of control | T/C (dose: 2.5 mg/kg/injection, schedule: Q01DX Z (ip), vehicle: methylcellulose (MC)): 150 % of control | T/C (dose: 2.5 mg/kg/injection, schedule: Q02DX004 (im), vehicle: saline): 108 % of control | T/C (dose: 3.0 mg/kg/injection, schedule: Q01DX Z (ip), vehicle: saline): 239 % of control | T/C (dose: 3.0 mg/kg/injection, schedule: Q01DX Z (sc), vehicle: saline): 113 % of control | T/C (dose: 3.75 mg/kg/injection, schedule: Q01DX Z (ip), vehicle: saline): 264 % of control | T/C (dose: 4.0 mg/kg/injection, schedule: Q01DX001 (ip), vehicle: saline): 121 % of control | T/C (dose: 4.0 mg/kg/injection, schedule: Q03DX Z (ip), vehicle: saline): 121 % of control | T/C (dose: 5.0 mg/kg/injection, schedule: Q01DX Z (ip), vehicle: methylcellulose (MC)): 293 % of control | T/C (dose: 5.0 mg/kg/injection, schedule: Q02DX004 (im), vehicle: saline): 106 % of control | T/C (dose: 6.0 mg/kg/injection, schedule: Q03DX Z (ip), vehicle: saline): 161 % of control | T/C (dose: 6.0 mg/kg/injection, schedule: Q07DX Z (ip), vehicle: saline): 198 % of control | T/C (dose: 7.5 mg/kg/injection, schedule: Q01DX Z (ip), vehicle: methylcellulose (MC)): 268 % of control | T/C (dose: 7.5 mg/kg/injection, schedule: Q01DX Z (ip), vehicle: saline): 265 % of control | T/C (dose: 8.0 mg/kg/injection, schedule: Q#A X Z (ip), vehicle: saline): 110 % of control | T/C (dose: 9.0 mg/kg/injection, schedule: Q07DX Z (ip), vehicle: saline): 154 % of control and 193 % of control | T/C (dose: 10.0 mg/kg/injection, schedule: Q01DX001 (im), vehicle: steriod suspending solution): 103 % of control | T/C (dose: 10.0 mg/kg/injection, schedule: Q01DX010 (sc), vehicle: olive oil, sesame oil, peanut oil): 101 % of control and 118 % of control | T/C (dose: 10.0 mg/kg/injection, schedule: Q01DX Z (ip), vehicle: methylcellulose (MC)): 200 % of control | T/C (dose: 10.0 mg/kg/injection, schedule: Q02DX004 (im), vehicle: olive oil, sesame oil, peanut oil): 153 % of control | T/C (dose: 12.0 mg/kg/injection, schedule: Q#A X Z (ip), vehicle: saline): 112 % of control | T/C (dose: 14.0 mg/kg/injection, schedule: Q07DX Z (ip), vehicle: saline): 152 % of control | T/C (dose: 15.0 mg/kg/injection, schedule: Q01DX Z (ip), vehicle: methylcellulose (MC)): 184 % of control | T/C (dose: 15.0 mg/kg/injection, schedule: Q01DX Z (ip), vehicle: saline): 161 % of control | T/C (dose: 16.0 mg/kg/injection, schedule: Q01DX001 (ip), vehicle: saline): 155 % of control | T/C (dose: 16.0 mg/kg/injection, schedule: Q01DX Z (sc), vehicle: saline): 152 % of control | T/C (dose: 18.0 mg/kg/injection, schedule: Q01DX001 (ip), vehicle: other): 172 % of control | T/C (dose: 18.0 mg/kg/injection, schedule: Q#A X Z (ip), vehicle: saline): 109 % of control | T/C (dose: 20.0 mg/kg/injection, schedule: Q01DX010 (sc), vehicle: olive oil, sesame oil, peanut oil): 87 % of control | T/C (dose: 20.0 mg/kg/injection, schedule: Q02DX004 (im), vehicle: olive oil, sesame oil, peanut oil): 175 % of control and 196 % of control | T/C (dose: 21.0 mg/kg/injection, schedule: Q07DX Z (ip), vehicle: saline): 184 % of control | T/C (dose: 24.0 mg/kg/injection, schedule: Q01DX007 (iv), vehicle: saline): 174 % of control | T/C (dose: 24.0 mg/kg/injection, schedule: Q01DX Z (ip), vehicle: saline): 120 % of control | T/C (dose: 24.0 mg/kg/injection, schedule: Q01DX Z (sc), vehicle: saline): 113 % of control | T/C (dose: 26.0 mg/kg/injection, schedule: Q01DX001 (ip), vehicle: carboxymethylcellulose (CMC)): 210 % of control | T/C (dose: 26.0 mg/kg/injection, schedule: Q01DX001 (ip), vehicle: other): 154 % of control and 200 % of control | T/C (dose: 30.0 mg/kg/injection, schedule: Q01DX Z (ip), vehicle: saline): 114 % of control | T/C (dose: 36.0 mg/kg/injection, schedule: Q01DX007 (iv), vehicle: saline): 210 % of control | T/C (dose: 36.0 mg/kg/injection, schedule: Q01DX Z (ip), vehicle: saline): 96 % of control | T/C (dose: 40.0 mg/kg/injection, schedule: Q01DX001 (im), vehicle: steriod suspending solution): 176 % of control | T/C (dose: 40.0 mg/kg/injection, schedule: Q01DX001 (ip), vehicle: carboxymethylcellulose (CMC)): 194 % of control and 206 % of control | T/C (dose: 40.0 mg/kg/injection, schedule: Q01DX001 (ip), vehicle: other): 198 % of control and 201 % of control | T/C (dose: 40.0 mg/kg/injection, schedule: Q02DX004 (im), vehicle: olive oil, sesame oil, peanut oil): 109 % of control and 110 % of control | T/C (dose: 54.0 mg/kg/injection, schedule: Q01DX007 (iv), vehicle: saline): 233 % of control | T/C (dose: 60.0 mg/kg/injection, schedule: Q01DX001 (ip), vehicle: carboxymethylcellulose (CMC)): 251 % of control and 296 % of control | T/C (dose: 60.0 mg/kg/injection, schedule: Q01DX001 (ip), vehicle: other): 224 % of control and 297 % of control | T/C (dose: 60.0 mg/kg/injection, schedule: Q01DX Z (ip), vehicle: saline): 103 % of control | T/C (dose: 64.0 mg/kg/injection, schedule: Q01DX010 (oral), vehicle: saline): 108 % of control | T/C (dose: 72.0 mg/kg/injection, schedule: Q01DX001 (ip), vehicle: saline): 215 % of control and 232 % of control and 264 % of control | T/C (dose: 75.0 mg/kg/injection, schedule: Q01DX Z (oral), vehicle: saline): 95 % of control | T/C (dose: 80.0 mg/kg/injection, schedule: Q01DX001 (im), vehicle: saline): 213 % of control | T/C (dose: 80.0 mg/kg/injection, schedule: Q01DX001 (im), vehicle: steriod suspending solution): 211 % of control | T/C (dose: 80.0 mg/kg/injection, schedule: Q02DX004 (im), vehicle: olive oil, sesame oil, peanut oil): 87 % of control | T/C (dose: 81.0 mg/kg/injection, schedule: Q01DX007 (iv), vehicle: saline): 97 % of control | T/C (dose: 81.0 mg/kg/injection, schedule: Q01DX Z (ip), vehicle: saline): 122 % of control | T/C (dose: 90.0 mg/kg/injection, schedule: Q01DX001 (ip), vehicle: carboxymethylcellulose (CMC)): 244 % of control | T/C (dose: 90.0 mg/kg/injection, schedule: Q01DX001 (ip), vehicle: other): 265 % of control | T/C (dose: 96.0 mg/kg/injection, schedule: Q01DX010 (oral), vehicle: saline): 111 % of control | T/C (dose: 144.0 mg/kg/injection, schedule: Q01DX010 (oral), vehicle: saline): 97 % of control and 119 % of control | T/C (dose: 150.0 mg/kg/injection, schedule: Q01DX Z (oral), vehicle: saline): 101 % of control | T/C (dose: 160.0 mg/kg/injection, schedule: Q01DX001 (im), vehicle: saline): 243 % of control | T/C (dose: 320.0 mg/kg/injection, schedule: Q01DX001 (im), vehicle: saline): 271 % of control | T/C (dose: 576.0 mg/kg/injection, schedule: Q01DX001 (ip), vehicle: saline): 110 % of control | T/C (dose: 576.0 mg/kg/injection, schedule: Q01DX010 (oral), vehicle: saline): 116 % of control | T/C (dose: 600.0 mg/kg/injection, schedule: Q01DX Z (oral), vehicle: saline): 122 % of control
